Values joined by “and” are separate entries in the source; they are usually repeats but may differ in a detail not shown here. Equal values may be shown once. Read-outs that look alike come from different tables or passages of the source.
Columns and labels:
C. elegans [1] = test system: C. elegans
C. elegans [2] = experiment: C. elegans motility dose-response (DR) assay; parameters: species or system Caenorhabditis elegans
C. elegans [3] = experiment: microbe, parasite or virus in culture; conditions: Caenorhabditis elegans
[4] = test system: H. contortus susceptible strain; experiment: Egg hatch inhibition (EHI), ovicidal effect; parameters: species or system Haemonchus contortus; conditions: Haemonchus contortus, susceptible strain, 100 μM; NE = Not Effective at 100 μM; control thiabendazole 0.1 µg/mL
[5] = test system: H. contortus susceptible strain; experiment: Larval migration inhibition test (LMIT); parameters: species or system Haemonchus contortus; conditions: Haemonchus contortus, 24 h, L3, 100 μM, NE = Not Effective at 100 μM, control ivermectin 8.75 µg/mL
Description: Eggs and third instar larvae (L3) of H. contortus from a field strain and a resistant strain of T. circumcincta were used in the current trials. These parasitic forms were obtained from fresh feces of Merino and Churra sheep experimentally infected at the experimental farm of the Instituto de Ganadería de Montaña (IGM, CSIC, Gruyeros, León, Spain) and purified according to previously described methods. Briefly, eggs were taken from fresh feces, washed, centrifuged and floated with a saturated sodium chloride solution, then concentrated, counted and used in the assays. L3 were obtained by culturing feces at 25 °C for 13 d. L3 larvae were […] in 0.5% sodium hypochlorite solution for 10 min at room temperature and washed to avoid excess salt. After washing, they were concentrated and counted for use.
The viability of H. contortus larvae was assessed by the larval migration inhibition test (LMIT) according to previously described methods. Briefly, 700 µL aliquots containing 500–600 L3 were prepared for each compound. […] After a 24 h incubation at 28 °C, the compound was removed by three washes, leaving a final volume of 1400 µL. After the washes, three 400 µL aliquots were taken from each tube and transferred to a 96-well plate with a MultiScreen mesh filter. The plates were incubated for a further 24 h at 28 °C to allow the motile L3 to pass through the 20 µm mesh for counting. Then, the number of larvae present in each well was counted to determine percentage of larval migration for each compound: % Larval migration=number of larvae migrating in compound wells/number of larvae migrating in negative control×100
For the larvae, ivermectin at 8.75 µg/mL and DMSO 0.5% (v/v) were used as controls and at least 12 replicates were performed. […] EC50 were determined by plotting the percentage of viability of the L1 against the concentration of each compound, using the nonlinear fit analysis provided by the SigmaPlot® 10.1.

[6] = read-out: EC50 (μM) at 24 h, C. elegans motility, DR assay
[7] = Table S2, C. elegans SS assay, 110 μM, 0 h, averages of 4 data points
[8] = Table S2, C. elegans SS assay, 110 μM, 24 h, averages of 4 data points
[9] = 0 h, read-out: Inhibition (%) 110 μM (0 h), C. elegans L4 motility, 110 μM, 0 h, mean ± SD of four experiments
[10] = 24 h, read-out: Inhibition (%) 110 μM (24 h), C. elegans L4 motility, 110 μM, 24 h, mean ± SD of four experiments
[11] = Caenorhabditis elegans, 24 h, read-out: EC50 (μM) at 24 h, C. elegans motility, DR assay, 24 h
[12] = 24 h, read-out: Percentage of motility inhibition 24 h, Table S2, C. elegans SS assay, 110 μM, 24 h, averages of 4 data points
[13] = 0 h, read-out: Percentage of motility inhibition 0 h, Table S2, C. elegans SS assay, 110 μM, 0 h, averages of 4 data points

## CN[C@H]1C[C@@H](N)[C@H](O)[C@@H](O[C@@H]2O[C@H](CO)[C@H](O)[C@@H]3OC4(O[C@H]23)O[C@H]([C@@H](N)CO)[C@H](O)[C@H](O)[C@H]4O)[C@@H]1O (some centres unmarked) [Hygromycin B, reference compound]
C. elegans [1]
  Inhibition (%) 110 μM (0 h): 67 ± 28%
  Inhibition (%) 110 μM (24 h): 89 ± 5%
C. elegans [2]; [6]
  EC50: > 60 µM

## Spiramycin [reference compound]
C. elegans [1]; C. elegans L4 motility, 110 μM, 0 h, mean ± SD of four experiments
  Inhibition (%) 110 μM (0 h): 43 ± 42%
C. elegans [1]; C. elegans L4 motility, 110 μM, 24 h, mean ± SD of four experiments
  Inhibition (%) 110 μM (24 h): 81 ± 9%
C. elegans [1]; [7]
  Percentage of motility inhibition 0 h: 42%
C. elegans [1]; [8]
  Percentage of motility inhibition 24 h: 80%
C. elegans [2]; [6]
  EC50: > 60 µM

## O=[N+]([O-])c1ccc(O)c2ncccc12 [Nitroxoline, reference compound]
C. elegans [3]; [9]
  inhibition at 110 µM: 52 ± 32%
C. elegans [3]; [10]
  inhibition at 110 µM: 88 ± 2%
C. elegans [2]; [11]
  EC50: > 60 µM

## CC[C@@H](C(=O)[C@@H](C)[C@@H](O)[C@H](C)[C@@H]1O[C@@H]([C@@H](CC)C(=O)O)CC[C@@H]1C)[C@H]1O[C@]2(C=C[C@@H](O)[C@]3(CC[C@@](C)([C@H]4CC[C@](O)(CC)[C@H](C)O4)O3)O2)[C@H](C)C[C@@H]1C [Salinomycin, reference compound]
[4]
  inhibition at 100 µM: 2.8 ± 5.1%
[5]
  inhibition at 100 µM: 0%
C. elegans [3]; 0 h, read-out: Inhibition (%) 110 μM (0 h)
  inhibition at 110 µM: 81 ± 9%
C. elegans [3]; 24 h, read-out: Inhibition (%) 110 μM (24 h)
  inhibition at 110 µM: 94 ± 1%
C. elegans [3]; [12]
  inhibition at 110 µM: 93%
C. elegans [2]; Caenorhabditis elegans, read-out: EC50 (μM) at 24 h, C. elegans motility, DR assay
  EC50: 55.3 ± 1.4 µM

## CC[C@H]1[C@@H]2C[C@H]3[C@@H]4N(C)c5ccccc5[C@]45C[C@@H]([C@H]2[C@H]5O)N3[C@@H]1O [Ajmaline]
C. elegans [1]; [7]
  Percentage of motility inhibition 0 h: 13%
C. elegans [3]; [13]
  inhibition at 110 µM: 19%

## CC12CCC(CC1=O)C2(C)C (centres unmarked) [Camphor]
C. elegans [1]; [8]
  Percentage of motility inhibition 24 h: 10%
C. elegans [3]; [13]
  inhibition at 110 µM: 0%
C. elegans [3]; [12]
  inhibition at 110 µM: 5%

## COC(=O)C[C@](O)(CCCC(C)(C)O)C(=O)O[C@@H]1C(OC)=C[C@]23CCCN2CCc2cc4c(cc2[C@H]13)OCO4 [Homoharringtonine]
C. elegans [1]; [7]
  Percentage of motility inhibition 0 h: 12%
C. elegans [1]; [8]
  Percentage of motility inhibition 24 h: 2% and 0%
C. elegans [3]; [13]
  inhibition at 110 µM: 20%

## CC1(C)CCC[C@](C)([C@H]2CC[C@]3(C)[C@@H]2[C@H](O)C[C@@H]2[C@@]4(C)CC[C@H](O)C(C)(C)[C@@H]4[C@@H](O)C[C@]23C)O1 [Panaxatriol]
C. elegans [1]; [8]
  Percentage of motility inhibition 24 h: 11%
C. elegans [3]; [12]
  inhibition at 110 µM: 15%

## Nc1ccc(S(=O)(=O)Nc2cnc3ccccc3n2)cc1 [Sulfaquinoxaline, reference compound]
C. elegans [3]; [9]
  inhibition at 110 µM: 87 ± 1%
C. elegans [3]; [10]
  inhibition at 110 µM: 67 ± 6%
C. elegans [2]; [11]
  EC50: > 60 µM

## Cc1cc(O)cc(C)c1Cl [Chloroxylenol, reference compound]
C. elegans [3]; [9]
  inhibition at 110 µM: 100%
C. elegans [3]; [13]
  inhibition at 110 µM: 100%
C. elegans [3]; [10]
  inhibition at 110 µM: 100%
C. elegans [3]; [12]
  inhibition at 110 µM: 100%
C. elegans [2]; [11]
  EC50: > 60 µM

## NC(=O)c1ncn([C@@H]2O[C@H](CO)[C@@H](O)[C@H]2O)n1 [Ribavirin, reference compound]
C. elegans [3]; [9]
  inhibition at 110 µM: 91 ± 5%
C. elegans [3]; [10]
  inhibition at 110 µM: 76 ± 11%
C. elegans [2]; [11]
  EC50: > 60 µM

## CC1=C[C@]23C(=O)[C@@H](C=C(CO)[C@@H](O)[C@]2(O)[C@H]1O)[C@H]1[C@@H](C[C@H]3C)C1(C)C [Ingenol]
C. elegans [1]; [7]
  Percentage of motility inhibition 0 h: 0% and 1%
C. elegans [3]; [12]
  inhibition at 110 µM: 19%

## O=C1CCC[C@@H]2[C@H]3CCC[N+]4([O-])CCC[C@@H](CN12)[C@@H]34 (some centres unmarked) [Oxymatrine]
C. elegans [1]; 24 h, 110 µM
  Percentage of motility inhibition 24 h: 6%
C. elegans [3]; [12]
  inhibition at 110 µM: 11%

## CC1(C)CCC[C@]2(C)[C@@H](C=O)C(C=O)=CC[C@@H]12 [Polygodial]
[4]
  inhibition at 100 µM: 0%
[5]
  inhibition at 100 µM: 0%
C. elegans [3]; [9]
  inhibition at 110 µM: 0%
C. elegans [3]; [10]
  inhibition at 110 µM: 93 ± 4%
C. elegans [2]; [11]
  EC50: 33.2 ± 6.4 µM

— publication PMC11855827, “High-Throughput Screening of Five Compound Libraries for Anthelmintic Activity and Toxicity Leads to the Discovery of Two Flavonoid Compounds” (International Journal of Molecular Sciences, 2025)
